From US9877961B2, “Anticoagulant reversal agents” (PEROSPHERE INC., priority 2011, dated 2018) come the findings set out here.

Data set [1] is described as follows: Stability of DAP powder: storage at 4° C. and differential scanning calorimetry. Type of data set: physicochemical. The protocol: An acetate salt of DAP was prepared as described herein. As described in these examples, DAP solid or powder refers to the acetate salt, while DAP in solution refers to the free base as the salt ionizes in aqueous solution. As described in these examples, the DAP compound used was the compound of Formula VII.
The DAP powder was tested for thermal stability in two ways. DAP was stored at 4° C. for 7 months prior to use. Additionally, the DAP solid was tested by differential scanning calorimetry (DSC) by heating from −20° C. to 200° C., back to −20° C. and again to 200° C.
(In general: In DSC, transitions show as peaks or steps in heat flow.)

Data set [2] can be described thus: DLS association of DAP with rivaroxaban. Type of data set: binding. As to the method: (§1) Rivaroxaban (XARELTO®) alone, DAP alone, and DAP:rivaroxaban combinations at mass ratios of 1:1 and 10:1 were added into an aqueous solution and analyzed by dynamic light scattering (DLS) to assess association of the DAP and rivaroxaban. A similar experiment was conducted on apixaban (ELIQUIS®) alone, DAP alone, and DAP:apixaban combinations at mass ratios of 1:1, 10:1 and 100:1. Fondaparinux (ARIXTRA®) alone, DAP alone, and fondaparinux:DAP combinations at mass ratios of 1:1, 10:1 and 100:1 were similarly tested. LMWH (bemiparin; HIBOR®), alone, DAP alone, and LMWH:DAP combinations at mass ratios of 1:1, 10:1, and 100:1 were also tested. The concentration of LMWH tested was 0.1 mg/ml. Therefore, at 1:1, 0.1 mg/ml DAP was tested, at 10:1, 1 mg/ml was tested, and at 100:1, 10 mg/ml DAP was tested.

Data set [3] in a line: DLS association of DAP with fondaparinux. Type of data set: binding. As to the method: as §1
In data set [4] the test system is dabigatran (PRADAXA®) anticoagulation. In words: DAP reversal of dabigatran (PRADAXA®) anticoagulation in vivo, aPTT. Set-up: species or system rat. The text has this: (§2) The activated partial thromboplastin time (aPTT) assay is an assay that measures how long it takes for the blood to clot. Blood samples are collected for direct measurement or in tubes with oxalate and citrate to arrest coagulation by calcium until the assay can be performed. In the assay, a phospholipid, an activator (silica, celite, kaolin, ellagic acid, etc.), and calcium are mixed into the plasma to induce coagulation. The assay measures the time until a thrombus (clot) forms.
A male albino rat, weighing 430 g, was administered 40 mg/kg of PRADAXA® (20 mg PRADAXA®; overdose of PRADAXA®) by oral gavage.
Approximately 2 hours into PRADAXA® treatment, 200 mg/kg DAP (100 mg DAP) was administered as an intravenous bolus injection. Approximately 2 hours later, the rat was administered a dose of 100 mg/kg of DAP (50 mg DAP). In another hour, the rat was administered another dose of 100 mg/kg of DAP (50 mg DAP). aPTT was measured throughout the course of the entire treatment.

For data set [5], the system named is rivaroxaban (XARELTO®) anticoagulation. In words: DAP reversal of rivaroxaban (XARELTO®) anticoagulation in vivo, aPTT. Particulars: rats, 5 mg/kg rivaroxaban oral, 5 mg/kg (2 mg) DAP i.v. On the set-up: species or system rat. As to the method:
as §2
5 mg/kg rivaroxaban (XARELTO®) was orally administered to rats. After four hours, 5 mg/kg of DAP (2 mg DAP) was administered intravenously. aPTT were measured at zero, 15, 30, 45, 60 and 240 minutes, prior to administration of DAP. aPTT was again measured at about 5, 10, 25, 35, 45, 60, 120, and 240 minutes after DAP administration.

For data set [6], the system named is rivaroxaban anticoagulation. In words: Rat tail transection bleeding assay, rivaroxaban. Type of data set: in vivo. The protocol:
Rat tail bleeding assay or rat tail transection assay is an assay that measures blood loss, e.g., blood loss after drug administration. In one embodiment, where the effect of the compound of the invention (e.g., DAP) is being tested, at the Tmax of the anticoagulant, DAP is administered intravenously. After 20 minutes, rat tails are transected approximately 1 mm from the tip, placed in room temperature saline, and blood is collected for 30 minutes and weighed.
Three rats each were administered 2 mg of rivaroxaban. One rat received a sham reversal containing no DAP, the second received 2.5 mg of DAP, and the third received 12.5 mg DAP. A fourth fat received sham anticoagulant and reversal doses (“sham”). 20 minutes after the reversal dose, tails were transected 1 mm from the tip, placed in room temperature saline, and blood loss was collected for 30 minutes and then weighed.

The subject of data set [7] is argatroban anticoagulation. In words: Argatroban dosed rats given IV DAP. Type of data set: in vivo, rat. Particulars: 200× IV dose of DAP.
Another data set has as its target human ERG (Homo sapiens, UniProt Q12809). In words: Human ERG binding. Particulars: data not shown.
The subject of the next data set is plasma proteins. As to the kind of experiment: Plasma protein binding. The conditions noted are these: data not shown. Type of data set: in vitro ADME.

Chain of human ERG (Q12809 whole entry): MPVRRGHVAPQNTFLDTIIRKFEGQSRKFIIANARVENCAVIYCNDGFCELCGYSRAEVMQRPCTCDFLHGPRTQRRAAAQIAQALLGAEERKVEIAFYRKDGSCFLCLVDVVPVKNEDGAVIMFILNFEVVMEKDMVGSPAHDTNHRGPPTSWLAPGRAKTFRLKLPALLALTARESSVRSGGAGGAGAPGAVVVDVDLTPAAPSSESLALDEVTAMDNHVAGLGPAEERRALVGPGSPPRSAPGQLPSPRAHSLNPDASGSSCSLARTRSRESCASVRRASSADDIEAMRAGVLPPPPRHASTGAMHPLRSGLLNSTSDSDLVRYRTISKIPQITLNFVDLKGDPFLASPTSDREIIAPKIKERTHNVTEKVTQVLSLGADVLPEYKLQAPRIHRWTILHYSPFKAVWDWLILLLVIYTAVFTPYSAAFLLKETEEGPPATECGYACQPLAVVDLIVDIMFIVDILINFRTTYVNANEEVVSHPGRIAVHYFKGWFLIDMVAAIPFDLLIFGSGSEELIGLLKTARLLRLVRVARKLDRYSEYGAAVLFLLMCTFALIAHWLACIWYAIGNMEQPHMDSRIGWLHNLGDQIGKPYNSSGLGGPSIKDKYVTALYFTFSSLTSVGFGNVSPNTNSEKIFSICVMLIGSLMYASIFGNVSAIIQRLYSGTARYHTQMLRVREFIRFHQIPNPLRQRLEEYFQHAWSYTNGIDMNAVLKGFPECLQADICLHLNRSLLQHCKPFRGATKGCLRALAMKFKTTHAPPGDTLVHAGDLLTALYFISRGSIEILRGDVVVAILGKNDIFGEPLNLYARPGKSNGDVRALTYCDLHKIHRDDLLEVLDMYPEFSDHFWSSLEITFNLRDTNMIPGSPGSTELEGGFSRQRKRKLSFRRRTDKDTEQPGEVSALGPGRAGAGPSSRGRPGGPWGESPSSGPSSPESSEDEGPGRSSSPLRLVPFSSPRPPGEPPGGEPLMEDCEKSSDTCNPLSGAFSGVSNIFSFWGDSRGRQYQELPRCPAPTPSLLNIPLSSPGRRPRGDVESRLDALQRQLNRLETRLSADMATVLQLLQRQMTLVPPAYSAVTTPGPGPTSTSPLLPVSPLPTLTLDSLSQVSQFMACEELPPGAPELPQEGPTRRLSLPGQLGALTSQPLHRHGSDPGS

As to `N=C(N)NCCC[C@H](N)C(=O)NCCCN1CCN(CCCNC(=O)[C@@H](N)CCCNC(=N)N)CC1` (stereo in doubt) [DAP, 2-Amino-5-guanidino-pentanoic acid (3-{4-[3-(2-amino-5-guanidino-pentanoylamino)-propyl]-piperazin-1-yl}-propyl)-amide], the “stability to storage as a lyophilized powder” value in data set [1] (4° C.) was “more than one year”. Besides, in [1] (4° C., powder (acetate salt)), the “stability of DAP powder on storage” value is on record as “more than 12 months”. Besides, the “thermal stability (DSC, stability to sterilization)” value in [1] (heating from −20° C. to 200° C., twice) was “survived repeated heating to 200 °C”. The “binding by DLS” value in data set [2] and in [3] was “directly bound” throughout. In data set [4] (2 hours after 100 mg DAP), the “aPTT risen back after first DAP dose” value stood at 79 s. The “aPTT risen after second DAP dose” value in data set [4] (after 50 mg DAP) came to 53 s. In data set [4] (both times (first and second DAP dose)), the “time until aPTT returned above baseline following DAP administration” value was ≤ 60 min. In addition, the “time until aPTT below baseline after DAP” value in data set [4] (first dose, 100 mg DAP (200 mg/kg) i.v. bolus) is ≤ 25 min; in data set [4] (second dose, 50 mg DAP (100 mg/kg)) it was ≤ 30 min. For the same compound, the elimination half-life result in data set [4] (inferred from return of anti-coagulation in rats) was “short elimination half-life”. The “time until PRADAXA®-induced anti-coagulation returned after DAP” value in data set [4] (intravenous bolus dose of DAP in rats) lay within 20 to 30 min. Moreover, the “reversal of oral dabigatran anticoagulation in vivo” value in data set [4] (rats, aPTT) was “reversed”. Further, the “time until aPTT dropped to baseline after DAP” value in data set [4] (third dose, 100 mg/kg (50 mg) DAP i.v.) is ≤ 20 min. Moreover, the “reversal of oral rivaroxaban anticoagulation in vivo” value in data set [5] is recorded as “effectively reversed”. Further, in data set [6] (2 mg rivaroxaban and 12.5 mg DAP, p<0.05 vs rivaroxaban only), the “blood loss (blood collected over 30 minutes)” value is “reduced blood loss to sham dose levels”. Moreover, the “reversal of rivaroxaban, blood loss vs anticoagulant only” value in data set [6] (rat tail transection, 30 minutes) is on record as “statistically significant reduction in blood loss”. Moreover, the “anticoagulation of argatroban dosed rats after DAP” value in data set [7] is “remained anticoagulated”. The “human ERG binding” value on human ERG was “no human ERG binding”. The plasma protein binding result in the data set on plasma proteins is listed as “did not appreciably bind”.
